pIC50: −log10 of the molar value. Where two headings read alike, the source gives them in different places.
Assays:
[1] = target: T1, complement C5a receptor 1 (C5aR1) (Homo sapiens, UniProt P21730); experiment: β-arrestin recruitment via C5aR1 activation in live CHO-K1 cells (PathHunter), agonist mode; format: cell-based
T1 construct: β-galactosidase fragment (PathHunter enzyme complementation); host or cells: CHO-K1 (PathHunter CHO-K1 C5aR1 β-arrestin cell line)
T1 sequence (P21730 1-350): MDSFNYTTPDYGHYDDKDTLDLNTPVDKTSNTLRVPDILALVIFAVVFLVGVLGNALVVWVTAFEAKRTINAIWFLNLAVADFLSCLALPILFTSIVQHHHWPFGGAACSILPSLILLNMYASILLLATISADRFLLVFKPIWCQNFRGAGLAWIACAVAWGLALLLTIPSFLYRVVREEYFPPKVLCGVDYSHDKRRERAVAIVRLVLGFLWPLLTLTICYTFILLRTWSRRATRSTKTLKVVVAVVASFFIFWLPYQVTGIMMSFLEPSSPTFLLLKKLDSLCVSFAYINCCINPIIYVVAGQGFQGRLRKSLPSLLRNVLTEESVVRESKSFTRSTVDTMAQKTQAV
How it was run: (§1)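 Live CHO-K1 cells carry two galactosidase enzyme fragments, one fused to β-arrestin and one to C5aR1, so that β-arrestin recruitment restores enzyme activity. Agonist mode tests compounds alone. Antagonist mode tests them against recombinant hC5a at EC90, and IC50 values are reported in binned ranges.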

[2] = target: T1, complement C5a receptor 1 (C5aR1); experiment: β-arrestin recruitment via C5aR1 activation in live CHO-K1 cells (PathHunter), antagonist mode; format: cell-based; conditions: antagonist mode; recombinant hC5a (EC90) as competing natural agonist; live CHO-K1 cells; read-out: [Antagonist] B-arrestin2 recruitment: Average IC50
How it was run: as §1

| [Agonist] B-arrestin2 recruitment: Average EC50 (nM) ([1]; at 10 μM) | pIC50 [2] | [Agonist] B-arrestin2 recruitment: Average EC50 (nM) [1] | Compound |
| --- | --- | --- | --- |
| Non-Active at 10 μM | > 6.30 | – | Cc1cnc2cc([C@H]3CC[C@@H](c4cnccc4C(F)(F)F)CC3)c(=O)n(Cc3ncccc3C(F)(F)F)c2n1 [150A, 3-Methyl-5-((3-(trifluoromethyl)pyridin-2-yl)methyl)-7-((1s,4s)-4-(4-(trifluoromethyl)pyridin-3-yl)cyclohexyl)pyrido[2,3-b]pyrazin-6(5H)-one] |
| – | 5.30 to 6.30 | Non-Active | Cc1cnc2cc([C@H]3CC[C@@H](c4c(C)ccnc4F)CC3)c(=O)n(Cc3nccnc3C(F)(F)F)c2n1 [143B, 7-((1s,4s)-4-(2-Fluoro-4-methylpyridin-3-yl)cyclohexyl)-3-methyl-5-((3-(trifluoromethyl)pyrazin-2-yl)methyl)pyrido[2,3-b]pyrazin-6(5H)-one] |
| Non-Active at 10 μM | > 6.30 | – | Cc1cnc2cc([C@@H]3CC[C@H](c4c(C)cccc4F)C3)c(=O)n(Cc3ncccc3C(F)F)c2n1 [187C, 5-((3-(Difluoromethyl)pyridin-2-yl)methyl)-7-((1R,3S)-3-(2-fluoro-6-methylphenyl)cyclopentyl)-3-methylpyrido[2,3-b]pyrazin-6(5H)-one] |
| Non-Active at 10 μM | > 6.30 | – | Cc1cnc2cc([C@H]3CC[C@H](c4ncsc4C)CC3)c(=O)n(Cc3ncccc3OC(F)(F)F)c2n1 [compound 166, 3-Methyl-7-((1r,4r)-4-(5-methylthiazol-4-yl)cyclohexyl)-5-((3-(trifluoromethoxy)pyridin-2-yl)methyl)pyrido[2,3-b]pyrazin-6(5H)-one] |
| Non-Active at 10 μM | > 6.30 | – | Cc1cnc2cc(C3CCN(c4c(C)ccnc4F)CC3)c(=O)n(Cc3nccnc3C)c2n1 [compound 134, 7-(1-(2-Fluoro-4-methylpyridin-3-yl)piperidin-4-yl)-3-methyl-5-((3-methylpyrazin-2-yl)methyl)pyrido[2,3-b]pyrazin-6(5H)-one] |
| Non-Active at 10 μM | > 6.30 | – | CCOc1nccnc1Cn1c(=O)c([C@H]2CC[C@H](c3c(C)cccc3F)CC2)cc2ncc(C)nc21 [compound 169, 5-((3-Ethoxypyrazin-2-yl)methyl)-7-((1r,4r)-4-(2-fluoro-6-methylphenyl)cyclohexyl)-3-methylpyrido[2,3-b]pyrazin-6(5H)-one] |
| Non-Active at 10 μM | 5.30 to 6.30 | – | Cc1cnc2cc([C@H]3CC[C@H](c4nccs4)CC3)c(=O)n(Cc3ncccc3C(F)(F)F)c2n1 [compound 158, 3-Methyl-7-((1r,4r)-4-(thiazol-2-yl)cyclohexyl)-5-((3-(trifluoromethyl)pyridin-2-yl)methyl)pyrido[2,3-b]pyrazin-6(5H)-one] |
| Non-Active at 10 μM | > 6.30 | – | Cc1cnc2c(cc([C@H]3CC[C@H](c4c(C)cccc4F)CC3)c(=O)n2Cc2ncccc2C(F)(F)F)n1 [compound 182, 7-((1r,4r)-4-(2-Fluoro-6-methylphenyl)cyclohexyl)-2-methyl-5-((3-(trifluoromethyl)pyridin-2-yl)methyl)pyrido[2,3-b]pyrazin-6(5H)-one] |
| – | > 6.30 | Non-Active | COc1nccc(C)c1[C@H]1CC[C@H](c2cc3ccc(C)nc3n(Cc3ncccc3CC(F)(F)F)c2=O)CC1 [compound 260, 7-Methyl-3-[(1r,4r)-4-(2-methoxy-4-methyl-3-pyridyl)cyclohexyl]-1-{[3-(2,2,2-trifluoroethyl)-2-pyridyl]methyl}-1,8-diaza-2(1H)-naphthalenone] |
| Non-Active at 10 μM | > 6.30 | – | Cc1cnc2cc([C@@H]3CC[C@H](c4c(C)cccc4F)C3)c(=O)n(Cc3ncccc3C(F)(F)F)c2n1 [171B, 7-((1R,3S)-3-(2-Fluoro-6-methylphenyl)cyclopentyl)-3-methyl-5-((3-(trifluoromethyl)pyridin-2-yl)methyl)pyrido[2,3-b]pyrazin-6(5H)-one] |
| – | 5.30 to 6.30 | Non-Active | Cc1cccc(F)c1N1CCC(n2c(=O)c3ccccc3n(Cc3ncccc3C(F)(F)F)c2=O)CC1 [compound 36, 3-(1-(2-Fluoro-6-methylphenyl)piperidin-4-yl)-1-((3-(trifluoromethyl)pyridin-2-yl)methyl)quinazoline-2,4(1H,3H)-dione] |
| Non-Active at 10 μM | 5.30 to 6.30 | – | Cc1cnc2cc(C3CCN(c4nccnc4C)CC3)c(=O)n(Cc3ncccc3C(F)(F)F)c2n1 [compound 151, 3-Methyl-7-(1-(3-methylpyrazin-2-yl)piperidin-4-yl)-5-((3-(trifluoromethyl)pyridin-2-yl)methyl)pyrido[2,3-b]pyrazin-6(5H)-one] |
| – | 4.00 to 5.30 | Non-Active | Cc1cnc2cc([C@H]3CC[C@@H](c4c(C)cccc4F)CC3)c(=O)n(Cc3nccnc3C)c2n1 [137A, (S)-7-((1s,4s)-4-(2-Fluoro-6-methylphenyl)cyclohexyl)-3-methyl-5-((3-methylpyrazin-2-yl)methyl)pyrido[2,3-b]pyrazin-6(5H)-one] |
| Non-Active at 10 μM | > 6.30 | – | Cc1cnc2cc([C@H]3CC[C@H](c4ncccc4C(F)F)CC3)c(=O)n(Cc3ncccc3C(F)(F)F)c2n1 [compound 179, 7-((1r,4r)-4-(3-(Difluoromethyl)pyridin-2-yl)cyclohexyl)-3-methyl-5-((3-(trifluoromethyl)pyridin-2-yl)methyl)pyrido[2,3-b]pyrazin-6(5H)-one] |
| – | 5.30 to 6.30 | Non-Active | O=c1c(C2CCN(c3ccccc3C(F)(F)F)CC2)cc2nccnc2n1Cc1nccnc1C(F)(F)F [compound 64, 7-(1-(2-(Trifluoromethyl)phenyl)piperidin-4-yl)-5-((3-(trifluoromethyl)pyrazin-2-yl)methyl)pyrido[2,3-b]pyrazin-6(5H)-one] |
| Non-Active at 10 μM | > 6.30 | – | Cc1cnc2cc([C@H]3CC[C@@H](c4c(C)cccc4F)C3)c(=O)n(Cc3ncccc3C(F)F)c2n1 [187A, 5-((3-(Difluoromethyl)pyridin-2-yl)methyl)-7-((1S,3R)-3-(2-fluoro-6-methylphenyl)cyclopentyl)-3-methylpyrido[2,3-b]pyrazin-6(5H)-one] |
| Non-Active at 10 μM | > 6.30 | – | Cc1cnc2cc([C@H]3CC[C@@H](c4c(C)cccc4F)C3)c(=O)n(Cc3ncccc3C(F)(F)F)c2n1 [171A, 7-((1S,3R)-3-(2-Fluoro-6-methylphenyl)cyclopentyl)-3-methyl-5-((3-(trifluoromethyl)pyridin-2-yl)methyl)pyrido[2,3-b]pyrazin-6(5H)-one] |
| – | > 6.30 | Non-Active | Cc1ccc2cc([C@H]3CC[C@H](c4c(C)ccnc4F)CC3)c(=O)n(Cc3ncccc3C(F)(F)F)c2n1 [compound 262, 7-Methyl-3-[(1r,4r)-4-(2-fluoro-4-methyl-3-pyridyl)cyclohexyl]-1-{[3-(trifluoromethyl)-2-pyridyl]methyl}-1,8-diaza-2(1H)-naphthalenone] |
| – | > 6.30 | Non-Active | Cc1cnc2cc([C@H]3CC[C@H](c4c(C)cncc4F)CC3)c(=O)n(Cc3ncccc3C(F)(F)F)c2n1 [compound 237, 7-((1r,4r)-4-(3-Fluoro-5-methylpyridin-4-yl)cyclohexyl)-3-methyl-5-((3-(trifluoromethyl)pyridin-2-yl)methyl)pyrido[2,3-b]pyrazin-6(5H)-one] |
| – | < 4.00 | Non-Active | Cc1ccc2nc(C3CCN(c4c(C)cccc4F)CC3)c(=O)n(Cc3ncccc3C(F)(F)F)c2c1 [142A, 3-(1-(2-Fluoro-6-methylphenyl)piperidin-4-yl)-7-methyl-1-((3-(trifluoromethyl)pyridin-2-yl)methyl)quinoxalin-2(1H)-one] |
| – | < 4.00 | Non-Active | O=c1c(C2CCN(c3nccnc3F)CC2)cc2nccnc2n1Cc1ccccc1C(F)(F)F [compound 34, 7-(1-(3-Fluoropyrazin-2-yl)piperidin-4-yl)-5-(2-(trifluoromethyl)benzyl)pyrido[2,3-b]pyrazine-6(5H)-one] |
| – | 5.30 to 6.30 | Non-Active | Cc1ccnc(F)c1N1CCC(c2c(C)c3nccnc3n(Cc3ncccc3C(F)(F)F)c2=O)CC1 [compound 62, 7-(1-(2-Fluoro-4-methylpyridin-3-yl)piperidin-4-yl)-8-methyl-5-((3-(trifluoromethyl)pyridin-2-yl)methyl)pyrido[2,3-b]pyrazin-6(5H)-one] |
| – | 5.30 to 6.30 | Non-Active | Cc1cnc2c(C)c(C3CCN(c4c(C)cccc4F)CC3)c(=O)n(Cc3nccnc3C(F)(F)F)c2n1 [compound 73, 7-(1-(2-Fluoro-6-methylphenyl)piperidin-4-yl)-3,8-dimethyl-5-((3-(trifluoromethyl)pyrazin-2-yl)methyl)pyrido[2,3-b]pyrazin-6(5H)-one] |
